Active and inactive are the calls of the source. The calls are words filed in the database; no cut-off is given here.
Legend:
[1] = system: Lissorhoptrus oryzophilus; test: Insecticidal activity against Lissorhoptrus oryzophilus in rice plants assessed as mortality at 25 ug treated as seed measured after 72 hr of feeding (reference value: 15 +/- 2.9%); type: functional
[2] = system: Lissorhoptrus oryzophilus; test: Insecticidal activity against Lissorhoptrus oryzophilus in rice plants assessed as mortality at 50 ug treated as seed measured after 72 hr of feeding (reference value: 15 +/- 2.9%); type: functional
[3] = system: Lissorhoptrus oryzophilus; test: Insecticidal activity against Lissorhoptrus oryzophilus in rice plants assessed as mortality at 10 ug treated as seed measured after 72 hr of feeding (reference value: 15 +/- 2.9%); type: functional
[4] = system: Lissorhoptrus oryzophilus; test: Insecticidal activity against Lissorhoptrus oryzophilus in rice plants assessed as leaf consumption rate per day at 50 ug treated as seed measured after 72 hr of feeding (reference value: 8.3 +/- 0.7 mm'2 /day); type: functional
[5] = system: Lissorhoptrus oryzophilus; test: Insecticidal activity against Lissorhoptrus oryzophilus in rice plants assessed as leaf consumption rate per day at 25 ug treated as seed measured after 72 hr of feeding (reference value: 8.3 +/- 0.7 mm'2 /day); type: functional
[6] = system: Lissorhoptrus oryzophilus; test: Insecticidal activity against Lissorhoptrus oryzophilus in rice plants assessed as leaf consumption rate per day at 100 ug treated as seed measured after 72 hr of feeding (reference value: 8.3 +/- 0.7 mm'2 /day); type: functional
[7] = system: Lissorhoptrus oryzophilus; test: Insecticidal activity against Lissorhoptrus oryzophilus in rice plants assessed as mortality at 100 ug treated as seed measured after 72 hr of feeding (reference value: 15 +/- 2.9%); type: functional
[8] = system: Lissorhoptrus oryzophilus; test: Insecticidal activity against Lissorhoptrus oryzophilus in rice plants assessed as leaf consumption rate per day at 10 ug treated as seed measured after 72 hr of feeding (reference value: 8.3 +/- 0.7 mm'2 /day); type: functional
[9] = system: Lissorhoptrus oryzophilus; test: Insecticidal activity against Lissorhoptrus oryzophilus in rice plants assessed as mortality at 7 ug treated as seed measured after 72 hr of feeding (reference value: 3.8 +/- 1.8%); type: functional
[10] = system: Lissorhoptrus oryzophilus; test: Insecticidal activity against Lissorhoptrus oryzophilus in rice plants assessed as mortality at 21 ug treated as seed measured after 72 hr of feeding (reference value: 3.8 +/- 1.8%); type: functional
[11] = system: Lissorhoptrus oryzophilus; test: Insecticidal activity against Lissorhoptrus oryzophilus in rice plants assessed as mortality at 14 ug treated as seed measured after 72 hr of feeding (reference value: 3.8 +/- 1.8%); type: functional
[12] = system: Lissorhoptrus oryzophilus; test: Insecticidal activity against Lissorhoptrus oryzophilus in two to three-leaf stage rice plants assessed as mortality treated as seed measured after 72 hr of feeding; type: functional
[13] = system: Lissorhoptrus oryzophilus; test: Insecticidal activity against Lissorhoptrus oryzophilus in rice plants assessed as leaf consumption rate per day at 14 ug treated as seed measured after 72 hr of feeding (reference value: 8.3 +/- 0.5 mm'2 /day); type: functional
[14] = system: Lissorhoptrus oryzophilus; test: Insecticidal activity against Lissorhoptrus oryzophilus in rice plants assessed as mortality at 28 ug treated as seed measured after 72 hr of feeding (reference value: 3.8 +/- 1.8%); type: functional
[15] = system: Lissorhoptrus oryzophilus; test: Insecticidal activity against Lissorhoptrus oryzophilus in rice plants assessed as mortality at 35 ug treated as seed measured after 72 hr of feeding (reference value: 3.8 +/- 1.8%); type: functional
[16] = system: Lissorhoptrus oryzophilus; test: Insecticidal activity against Lissorhoptrus oryzophilus in rice plants assessed as leaf consumption rate per day at 35 ug treated as seed measured after 72 hr of feeding (reference value: 8.3 +/- 0.5 mm'2 /day); type: functional
[17] = system: Lissorhoptrus oryzophilus; test: Insecticidal activity against Lissorhoptrus oryzophilus in five to six-leaf stage rice plants assessed as mortality treated as seed measured after 72 hr of feeding; type: functional, organism-based
[18] = system: Lissorhoptrus oryzophilus; test: Insecticidal activity against Lissorhoptrus oryzophilus in rice plants assessed as leaf consumption rate per day at 7 ug treated as seed measured after 72 hr of feeding (reference value: 8.3 +/- 0.5 mm'2 /day); type: functional
[19] = system: Lissorhoptrus oryzophilus; test: Insecticidal activity against Lissorhoptrus oryzophilus in three to four-leaf stage rice plants assessed as mortality treated as seed measured after 72 hr of feeding; type: functional
[20] = system: Lissorhoptrus oryzophilus; test: Insecticidal activity against Lissorhoptrus oryzophilus in rice plants assessed as leaf consumption rate per day at 21 ug treated as seed measured after 72 hr of feeding (reference value: 8.3 +/- 0.5 mm'2 /day); type: functional
[21] = system: Lissorhoptrus oryzophilus; test: Insecticidal activity against Lissorhoptrus oryzophilus in rice plants assessed as leaf consumption rate per day at 28 ug treated as seed measured after 72 hr of feeding (reference value: 8.3 +/- 0.5 mm'2 /day); type: functional

CNC(=O)c1cc(Cl)cc(C)c1NC(=O)c1cc(Br)nn1-c1ncccc1Cl [CHLORANTRANILIPROLE]
mortality [1]: 20%
mortality [2]: 12.5%
mortality [3]: 10%
Activity [4]: 7.3 mm2
Activity [5]: 6.7 mm2
Activity [6]: 9.4 mm2
mortality [7]: 16.3%
Activity [8]: 8.3 mm2

CN1COCN(Cc2cnc(Cl)s2)/C1=N\[N+](=O)[O-] [THIAMETHOXAM]
mortality [9]: 22.5%
mortality [10]: 28.8%
mortality [11]: 21.3%
LC50 [12]: 447 pg
Activity [13]: 6.6 mm2
mortality [14]: 42.5%
mortality [15]: 45%
Activity [16]: 6.4 mm2
Activity [17]: Active
Activity [18]: 6.9 mm2
LC50 [19]: 142 pg
Activity [20]: 5.5 mm2
Activity [21]: 5.2 mm2

Reference: ChEMBL document CHEMBL3046088, “Systemic effects of thiamethoxam and chlorantraniliprole seed treatments on adult Lissorhoptrus oryzophilus (Coleoptera: Curculionidae) in rice” (2013)
